Measured values reported in patent publication US8552031B2, “3-ethylidenehydrazino substituted heterocyclic compounds as thrombopoietin receptor activators” (Nissan Chemical Industries, Ltd., priority 2004, dated 2013).

These compounds were tested on UT7/EPO cells (assay: Proliferation of mother cell line UT7/EPO expressing no TPO receptor (WST-8)). Conditions: FIG. 2, 4 days incubation.
Assay type: cell-based, human
Method: (§1) UT7/EPO-mpl is a stable transformed cell line obtained by introducing into human leukemic cell line UT7/EPO a vector that induces expression of human TPO receptor (c-mp1) under control of cytomegalovirus immediate-early promoter by the method of Takatoku et al. (J. Biol. Chem., 272:7259-7263 (1997)). […] These two cell lines were subcultured in Iscove's modified Dulbecco's medium (IMDM; GIBCO) containing 10% fetal bovine serum (FBS; Thermo Electron or BioWest) using a CO2 incubator (5% CO2, 37° C.).
The subcultured cells described above were washed twice with phosphate buffered saline (PBS) and suspended in IMDM containing 10% FBS at a cell density of 6×10^4 cells/ml. The cell suspension was transferred to a 96-well tissue culture plate (CORNING) in 100-μl aliquots. Then either TPO (Pepro Tech EC) or the compound of Synthetic Example 4 dissolved in dimethyl sulfoxide (DMSO) was diluted 83-fold with IMDM containing 10% FBS and added to the aforementioned cell suspension in 20-μl aliquots. The cell suspension was incubated in a CO2 incubator (5% CO2, 37° C.) for 4 days. Cell proliferation was assayed using WST-8 reagent (Kishida Chemical Co., Ltd.) according to instructions by the manufacturer. […] The formazan pigment generated was detected by measuring the absorbance at 450 nm with a 96-well microplate reader (Nihon Molecular Devices, Spectramax 190).

Compound | effect on proliferation of UT7/EPO, the mother cell line
CC(=NNC(=S)NCC(=O)O)c1csc(-c2ccc(Cl)c(Cl)c2)c1O [Synthetic Example 4, 2-[(2-{1-[5-(3,4-dichlorophenyl)-4-hydroxythiophen-3-yl]-etylidene}-hydrazinocarbonothioyl)amino]acetic acid] | no effect

What follows are compounds tested against T1, human TPO receptor (c-mp1) (Homo sapiens, UniProt P40238) (assay: Stimulation of proliferation of TPO-dependent cell line UT7/EPO-mpl (WST-8)). Conditions: FIG. 1; 4 days incubation, WST-8, absorbance at 450 nm.
T1 construct: expressed in transfected cells
T1 sequence (P40238 26-635): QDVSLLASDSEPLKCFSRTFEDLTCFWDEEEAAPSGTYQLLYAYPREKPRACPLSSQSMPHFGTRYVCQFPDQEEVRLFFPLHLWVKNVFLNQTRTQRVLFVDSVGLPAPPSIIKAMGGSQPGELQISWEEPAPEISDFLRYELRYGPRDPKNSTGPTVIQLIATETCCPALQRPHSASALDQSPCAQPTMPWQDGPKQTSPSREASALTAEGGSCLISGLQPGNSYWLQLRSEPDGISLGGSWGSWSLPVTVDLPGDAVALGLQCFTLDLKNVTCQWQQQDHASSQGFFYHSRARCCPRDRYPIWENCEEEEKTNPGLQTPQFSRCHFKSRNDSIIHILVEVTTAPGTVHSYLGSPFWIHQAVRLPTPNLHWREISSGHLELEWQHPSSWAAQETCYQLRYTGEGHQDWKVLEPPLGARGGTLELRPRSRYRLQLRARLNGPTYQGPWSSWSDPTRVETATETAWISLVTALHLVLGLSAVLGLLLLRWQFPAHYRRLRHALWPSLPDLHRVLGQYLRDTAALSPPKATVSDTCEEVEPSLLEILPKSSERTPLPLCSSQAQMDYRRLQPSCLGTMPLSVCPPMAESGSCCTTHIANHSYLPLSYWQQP
Assay type: cell-based
Method: The reactivity of the compound of Synthetic Example 4 of the present invention with thrombopoietin (TPO) receptor was assayed using a human leukemic cell line, UT7/EPO-mpl.
as §1
The subcultured cells described above were washed twice with phosphate buffered saline (PBS) and suspended in IMDM containing 10% FBS at a cell density of 6×10^4 cells/ml. The cell suspension was transferred to a 96-well tissue culture plate (CORNING) in 100-μl aliquots. Then either TPO (Pepro Tech EC) or the compound of Synthetic Example 4 dissolved in dimethyl sulfoxide (DMSO) was diluted 83-fold with IMDM containing 10% FBS and added to the aforementioned cell suspension in 20-μl aliquots. The cell suspension was incubated in a CO2 incubator (5% CO2, 37° C.) for 4 days. Cell proliferation was assayed using WST-8 reagent (Kishida Chemical Co., Ltd.) according to instructions by the manufacturer. A 10-μl aliquot of 5 mM WST-8 reagent solution was added to each well of the tissue culture plate, and the plate was incubated at 37° C. for 4 h. The formazan pigment generated was detected by measuring the absorbance at 450 nm with a 96-well microplate reader (Nihon Molecular Devices, Spectramax 190).
The compounds of the following Synthetic Examples were tested according to the method of Assay Example 1 to determine the concentration of each compound that yields a growth rate corresponding to 50% of the growth of human leukemic cell line UT-7/EPO-mpl observed in the presence of 10 ng/ml TPO (EC50).

Compound | proliferation of TPO-responsive UT7/EPO-mpl cells
CC(=NNC(=S)NCC(=O)O)c1csc(-c2ccc(Cl)c(Cl)c2)c1O [Synthetic Example 4, 2-[(2-{1-[5-(3,4-dichlorophenyl)-4-hydroxythiophen-3-yl]-etylidene}-hydrazinocarbonothioyl)amino]acetic acid] | stimulated by the compound of Synthetic Example 4 in a concentration-dependent manner

Same assay, conditions: concentration that yields a growth rate corresponding to 50% of the growth of UT-7/EPO-mpl observed in the presence of 10 ng/ml TPO; 4 days incubation

EC50 | Compound
5.6 ng/mL | CC(=NNC(=S)NCC(=O)O)c1csc(-c2ccc(Cl)c(Cl)c2)c1O [Synthetic Example 4, 2-[(2-{1-[5-(3,4-dichlorophenyl)-4-hydroxythiophen-3-yl]-etylidene}-hydrazinocarbonothioyl)amino]acetic acid]

Same assay, conditions: concentration that yields a growth rate corresponding to 50% of the growth of UT-7/EPO-mpl observed in the presence of 10 ng/ml TPO; 4 days incubation; read-out: EC50 (converted)

EC50 | Compound
50.4 nM | COC(=O)C1CCN(C(=S)NN=C(C)c2csc(-c3ccc(Br)cc3)c2O)CC1 [Synthetic Example 8, methyl 1-{1-[5-(4-bromophenyl)-4-hydroxy-thiophen-3-yl]-ethylidene-hydrazinothiocarbonyl}-piperidine-4-carboxylate]
4.79 nM | CC(=NNC(=S)N1CCC(C(=O)O)CC1)c1csc(-c2ccc(Cl)cc2)c1O [Synthetic Example 12, 1-{1-[5-(4-chlorophenyl)-4-hydroxy-thiophen-3-yl]-ethilidene-hydrazinothiocarbonyl}-piperidine-4-carboxylic acid]
63.7 nM | COC(=O)C1CCN(C(=S)NN=C(C)c2csc(-c3ccc(Cl)c(Cl)c3)c2O)CC1 [Synthetic Example 1, methyl 1-{1-[5-(3,4-dichlorophenyl)-4-hydroxythiophen-3-yl]-ethylidene-hydrazinothiocarbonyl}-piperidine-4-carboxylate]
45.8 nM | CC(=NNC(=S)N1CCC(CO)CC1)c1csc(-c2ccc(Cl)c(Cl)c2)c1O [Synthetic Example 22, 1-{1-[5-(3,4-dichlorophenyl)-4-hydroxythiophen-3-yl]-ethylidene-hydrazinothiocarbonyl}-piperidine-4-methanol]
6.98 nM | CC(=NNC(=S)N1CCC(O)CC1)c1csc(-c2ccc(Cl)c(Cl)c2)c1O [Synthetic Example 20, 1-{1-[5-(3,4-dichlorophenyl)-4-hydroxythiophen-3-yl]-ethylidene-hydrazinothiocarbonyl}-piperidin-4-ol]
51.8 nM | CC(=NNC(=S)N1CCCC(O)C1)c1csc(-c2ccc(Cl)c(Cl)c2)c1O (centres unmarked) [Synthetic Example 21, 1-{1-[5-(3,4-dichlorophenyl)-4-hydroxythiophen-3-yl]-ethylidene-hydrazinothiocarbonyl}-piperidin-3-ol]
49.3 nM | CCN(CC)C(=O)C1CCN(C(=S)NN=C(C)c2csc(-c3ccc(Cl)c(Cl)c3)c2O)CC1 [Synthetic Example 19, 1-{1-[5-(3,4-dichlorophenyl)-4-hydroxythiophen-3-yl]-ethylidene-hydrazinothiocarbonyl}-piperidine-4-carboxylic acid diethylamide]
6.02 nM | CC(=NNC(=S)N1CCC(C(=O)O)CC1)c1csc(-c2ccc(C)c(C)c2)c1O [Synthetic Example 13, 1-{1-[5-(3,4-dimethylphenyl)-4-hydroxythiophen-3-yl]-ethylidene-hydrazinothiocarbonyl}-piperidine-4-carboxylic acid]
6.77 nM | CC(=NNC(=S)N1CCC(C(=O)O)CC1)c1csc(-c2ccc(Cl)c(Cl)c2)c1O [Synthetic Example 2, 1-{1-[5-(3,4-dichlorophenyl)-4-hydroxythiophen-3-yl]-ethylidene-hydrazinothiocarbonyl}-piperidine-4-carboxylic acid]
5.94 nM | CC(=NNC(=S)N1CCC(C(=O)O)CC1)c1csc(-c2cccc(Cl)c2)c1O [Synthetic Example 15, 1-{1-[5-(3-chlorophenyl)-4-hydroxythiophen-3-yl]-ethylidene-hydrazinothiocarbonyl}-piperidine-4-carboxylic acid]
46.6 nM | CC(=NNC(=S)N1CCCC(C(=O)O)C1)c1csc(-c2ccc(Cl)c(Cl)c2)c1O (centres unmarked) [Synthetic Example 18, 1-{1-[5-(3,4-dichlorophenyl)-4-hydroxythiophen-3-yl]-ethylidene-hydrazinothiocarbonyl}-piperidine-3-carboxylic acid]

The remaining lines, values behind:

Compound | EC50
CC(=NNC(=S)N1CCC(C(=O)O)CC1)c1csc(-c2ccc(C(F)(F)F)cc2)c1O [Synthetic Example 10, 1-{1-[4-hydroxy-5-(4-trifluoromethylphenyl)-thiophen-3-yl]-ethylidene-hydrazinothiocarbonyl}-piperidine-4-carboxylic acid] | 5.73 nM
CC(=NNC(=S)N1CCC(C(=O)O)CC1)c1nn(C)c(-c2ccc(C(F)(F)F)cc2)c1O [Synthetic Example 16, 1-{1-[4-hydroxy-1-methyl-5-(4-trifluoromethylphenyl)-1H-pyrazol-3-yl]-ethylidene-hydrazinothiocarbonyl}-piperidine-4-carboxylic acid] | 8.09 nM
CC(=NNC(=S)NCCC(=O)O)c1csc(-c2ccc(Cl)c(Cl)c2)c1O [Synthetic Example 6, 3-[(2-{1-[5-(3,4-dichlorophenyl)-4-hydroxythiophen-3-yl]-ethylidene}-hydrazinocarbonothioyl)amino]propionic acid] | 32.4 nM
CC(=NNC(=S)N1CCC(C(=O)O)CC1)c1csc(-c2ccc(OC(F)(F)F)cc2)c1O [Synthetic Example 11, 1-{1-[5-(4-trifluoromethoxyphenyl)-4-hydroxythiophen-3-yl]-ethylidene-hydrazinothiocarbonyl}-piperidine-4-carboxylic acid] | 5.95 nM
CC(=NNC(=S)N1CCC(C(=O)O)CC1)c1nn(C)c(-c2ccc(Cl)c(Cl)c2)c1O [Synthetic Example 17, 1-{1-[5-(3,4-dichlorophenyl)-4-hydroxy-1-methyl-1H-pyrazol-3-yl]-ethylidene-hydrazinothiocarbonyl}-piperidine-4-carboxylic acid] | 16.6 nM
CC(=NNC(=S)N1CCC(C(=O)O)CC1)c1csc(-c2ccc(C(C)(C)C)cc2)c1O [Synthetic Example 14, 1-{1-[5-(4-t-butylphenyl)-4-hydroxy-thiophen-3-yl]-ethylidene-hydrazinothiocarbonyl}-piperidine-4-carboxylic acid] | 5.66 nM
COC(=O)CCNC(=S)NN=C(C)c1csc(-c2ccc(Cl)c(Cl)c2)c1O [Synthetic Example 5, methyl 3-[(2-{1-[5-(3,4-dichlorophenyl)-4-hydroxythiophen-3-yl]-ethylidene}-hydrazinocarbonothioyl)amino]propionate] | 67.2 nM
COCCNC(=S)NN=C(C)c1csc(-c2ccc(Cl)c(Cl)c2)c1O [Synthetic Example 7, 1-(2-{1-[5-(3,4-dichlorophenyl)-4-hydroxythiophen-3-yl]-ethylidene}-hydrazinocarbonothioyl)amino-2-methoxyethane] | 66.9 nM
COC(=O)CNC(=S)NN=C(C)c1csc(-c2ccc(Cl)c(Cl)c2)c1O [Synthetic Example 3, methyl 2-[(2-{1-[5-(3,4-dichlorophenyl)-4-hydroxythiophen-3-yl]-ethylidene}-hydrazinocarbonothioyl)amino]acetate] | 55.5 nM
COCCCNC(=S)NN=C(C)c1csc(-c2ccc(Cl)c(Cl)c2)c1O [Synthetic Example 23, 1-(2-{1-[5-(3,4-dichlorophenyl)-4-hydroxythiophen-3-yl]-ethylidene}-hydrazinocarbonothioyl)amino-3-methoxypropane] | 76.3 nM
CC(=NNC(=S)N1CCC(C(=O)O)CC1)c1csc(-c2ccc(Br)cc2)c1O [Synthetic Example 9, 1-{1-[5-(4-bromophenyl)-4-hydroxy-thiophen-3-yl]-ethylidene-hydrazinothiocarbonyl}-piperidin-4-carboxylic acid] | 4.77 nM

Same assay, conditions: concluded from UT7/EPO-mpl versus UT7/EPO proliferation (FIG. 1, FIG. 2)

Compound | selectivity of action on the TPO receptor
CC(=NNC(=S)NCC(=O)O)c1csc(-c2ccc(Cl)c(Cl)c2)c1O [Synthetic Example 4, 2-[(2-{1-[5-(3,4-dichlorophenyl)-4-hydroxythiophen-3-yl]-etylidene}-hydrazinocarbonothioyl)amino]acetic acid] | acts on the TPO receptor selectively as an activator
